Each block holds one substance with its values, some of them ahead of it.
Columns and labels:
LDL-R [1] = biological target: T1, LDL-R (Homo sapiens, UniProt P01130); conditions: added exogenously to growing HepG2 cells; cited from earlier work
T1 construct: western blot analyses for endogenous LDL-R; endogenous in cells; host or cells: HepG2

[2] = Model fluorescence quenching of FI-Bio-Ahx-Lys-Methyl ester (IIId) by biotin-binding proteins; conditions: for maximal quenching of fluorescence intensity of (IIId): data not shown; for quenching of fluorescence intensity of (IIId): 8:1 molar ratio protein:(IIId), FIGS. 7A, 7B
Protocol: FIG. 7A illustrates fluorescence scan spectroscopy of FI-Bio-Ahx-Lys-Methyl ester (IIId) in presence of avidin.
FIG. 7B illustrates fluorescence scan spectroscopy of FI-Bio-Ahx-Lys-Methyl ester (IIId) in presence of insulin as control peptide. […] For each experiment 5 μl of 0.5 mM (IIId) peptide in water was used.
Previously a number of studies reported that the interaction between two ligands one of which is fluorescence labeled can be followed by studying fluorescence intensity. In general the fluorescence intensity is suppressed with or without shift of emission peak position when there is a strong interaction between the two ligands. Greater the suppression or quenching of fluorescence intensity, greater is the strength of binding. In order to further confirm the above notion, a study was carried out by using a fixed concentration of fluorescent biotinylated peptide (IIId) and increasing doses of avidin protein. […] These avidin analogs with varying binding affinity towards biotin have been developed and made available through commercial organizations [Polyscience Inc., Technical Data Sheet Report-779]. […] This study confirms that fluorescence quenching is an indicator of binding between two ligands one of which is fluorescently labeled.

[3] = biological target: T2, recombinant hPCSK9 wild type (Homo sapiens, UniProt Q8NBP7); assay: SDS-PAGE fluorescence / western blot binding of FI-EGF-A to recombinant FLAG-hPCSK9; conditions: 5 μg FI-EGF-A + 1 μg rec-hPCSK9 WT, 2 h room temperature; fluorescent band at ~65 kDa; FIG. 12
T2 construct: complex formation between 60 kDa rec-hPCSK9 mature form with 5 kDa FI-EGF-A; made in house
Protocol: FIG. 12 illustrates SDS-Gel electrophoresis of FI-EGF-A peptide in presence and absence of recombinant hPCSK9 protein. 5 μg of FI-EGF-A (Ib) was incubated with 1 μg rec-hPCSK9 wild type (WT) for 2 h at room temperature. The samples were resolved in 10% SDS PAGE. Left: Fluorescence detection; Right: Western blot using anti-FLAG as primary antibody. There is a fluorescence positive band around 65 kDa (a mobility shift by ˜5 kDa) shown by thick arrow indicating complex formation between 60 kDa rec-hPCSK9 mature form with 5 kDa FI-EGF-A (Ib) (Left panel). […] It is also noticed that after incubation with FI-EGF-A peptide, the 74 kDa PCSK9 protein is not recognized by anti-FLAG antibody while the 60 kDa hPCSK9 protein is still recognized but with reduced potency. […]
Binding assays of various PCSK9 peptides were carried out by incubating 15 μg of each peptide (˜0.008 mM) with 20 μg of FL-EGF-A in a final volume of 20 μl of 25 mM HEPES (pH 7.4), 150 mM NaCl, 2 mM CaCl2 for 2 h at 37° C. Similar study was also performed using recPCSK9 wild type as well as D/Y variants against FI-EGF-A. Each sample along with the control without any added peptide was assessed for any binding between FI-EGF-A and peptide using fluorescence study, Mass spectrometry and Native gel studies […]

LDL-R [4] = biological target: T1, LDL-R; assay: LDL-R level in HepG2 cells by western blot of whole cell lysates; assay type: cell-based
Protocol: (§1) FIG. 13 illustrates (A) Western blot analyses showing the quantitation of LDL-R and PCSK9 levels under various conditions in HepG2 cells. These are western blot figures showing the effect of externally added FI-EGF-A peptide on exogenous levels of LDL-R and PCSK9 in growing HepG2 cells. The cells were harvested after 24 h and whole cell lysates were used for analysis of LDL-R, PCSK9 and actin levels both for control sample (DMSO) and FI-EGF-A done in duplicates. Actin was used as a house keeping control protein for quantitation purpose. (B): Rescue effect of FI-EGF-A peptide added in increasing concentration levels on LDL-R in growing HuH7 cells in the presence of added rec-PCSK9 protein. Rec-PCSK9 was incubated with various amounts of FI-EGF-A for 3 h at room temp and then applied to cells growing in 2 mL media to the concentrations as indicated in the figure. The cells were harvested 7 h later.
(§2) FIG. 14 illustrates Western blots showing PCSK9 and LDL-R levels in the presence of various PCSK9 catalytic peptides in HepG2 cell. […]
(§3) The number passages of cell lines used were 6-8 times until they are at least 80% confluent as determined by microscope. […] All culture samples including whole cell lysate (WCL) were analysed for their protein contents using Pierce BCA (Bicinchoninic acid) reagent method or Bradford assay (Bio-Rad #500-0205) as described later.
(§4) In general 20 μg of WCLs derived from various peptide treated HepG2 cell experiments was resolved by conventional 12% SDS-PAGE (Laemmli, 1970 #2). Resolved samples were then transferred to polyvinylidene fluoride (Bio-Rad #162-0177) and probed for LDL-R (R&D Systems #AF2148), hPCSK9 (Circulex #CY-M1033), Transferrin Recepter (TR) (Invitrogen #13-6800), αβ-actin-HRP (Horse Radish Peroxidase) (abcam #ab49900) and αFLAG-HRP (abcam #1238) primary antibodies and detected with α goat-HRP (abcam #ab6741) or a mouse-HRP (Bio-Rad #172-1011) secondary antibodies and visualized on a Bio-Rad versa dock imaging system using Clarity ECL Western Substrate (Bio-Rad #170-5060). […]

PCSK9 = PCSK9 level in HepG2 cells by western blot of whole cell lysates; assay type: cell-based, human; conditions: HepG2, 12 μg/ml, 24 h; FIG. 13A
Protocol: as §1, §2
as §3, with “later. […]” for “later.”

LDL-R [5] = assay: Rescue of LDL-R level in cells after addition of rec-PCSK9 protein (HuH7); assay type: cell-based, human
Protocol: as §1, with “Rec-PCSK9 was incubated with various amounts of FI-EGF-A for 3 h at room temp and then applied to cells growing in 2 mL media to the concentrations as indicated in the figure. The cells were harvested 7 h later.” left out
as §4

[6] = Molecular Probes handbook; read-out: Kd with biotin; cited from earlier work

T1 sequence (P01130 22-860): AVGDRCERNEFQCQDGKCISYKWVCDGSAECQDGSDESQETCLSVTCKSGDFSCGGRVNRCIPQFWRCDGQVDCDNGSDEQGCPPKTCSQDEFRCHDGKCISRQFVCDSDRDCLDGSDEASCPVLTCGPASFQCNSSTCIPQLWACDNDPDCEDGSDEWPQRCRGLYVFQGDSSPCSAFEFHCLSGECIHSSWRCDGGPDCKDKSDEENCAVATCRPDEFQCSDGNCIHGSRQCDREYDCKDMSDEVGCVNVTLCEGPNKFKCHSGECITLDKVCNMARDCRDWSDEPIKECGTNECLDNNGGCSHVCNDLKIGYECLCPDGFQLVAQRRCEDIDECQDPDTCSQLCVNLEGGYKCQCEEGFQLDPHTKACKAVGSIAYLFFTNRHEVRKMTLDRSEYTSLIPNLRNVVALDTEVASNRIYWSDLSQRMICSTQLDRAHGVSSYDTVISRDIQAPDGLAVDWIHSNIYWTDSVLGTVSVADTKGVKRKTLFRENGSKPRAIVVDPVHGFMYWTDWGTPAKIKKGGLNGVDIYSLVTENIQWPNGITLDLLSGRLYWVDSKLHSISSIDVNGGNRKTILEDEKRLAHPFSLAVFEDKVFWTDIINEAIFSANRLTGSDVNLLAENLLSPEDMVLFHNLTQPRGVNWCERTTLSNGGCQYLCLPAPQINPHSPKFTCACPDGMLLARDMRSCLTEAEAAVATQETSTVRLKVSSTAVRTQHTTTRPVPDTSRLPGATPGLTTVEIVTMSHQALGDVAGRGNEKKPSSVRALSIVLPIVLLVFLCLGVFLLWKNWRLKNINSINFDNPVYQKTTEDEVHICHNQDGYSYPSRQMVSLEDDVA
T2 sequence (Q8NBP7 153-692): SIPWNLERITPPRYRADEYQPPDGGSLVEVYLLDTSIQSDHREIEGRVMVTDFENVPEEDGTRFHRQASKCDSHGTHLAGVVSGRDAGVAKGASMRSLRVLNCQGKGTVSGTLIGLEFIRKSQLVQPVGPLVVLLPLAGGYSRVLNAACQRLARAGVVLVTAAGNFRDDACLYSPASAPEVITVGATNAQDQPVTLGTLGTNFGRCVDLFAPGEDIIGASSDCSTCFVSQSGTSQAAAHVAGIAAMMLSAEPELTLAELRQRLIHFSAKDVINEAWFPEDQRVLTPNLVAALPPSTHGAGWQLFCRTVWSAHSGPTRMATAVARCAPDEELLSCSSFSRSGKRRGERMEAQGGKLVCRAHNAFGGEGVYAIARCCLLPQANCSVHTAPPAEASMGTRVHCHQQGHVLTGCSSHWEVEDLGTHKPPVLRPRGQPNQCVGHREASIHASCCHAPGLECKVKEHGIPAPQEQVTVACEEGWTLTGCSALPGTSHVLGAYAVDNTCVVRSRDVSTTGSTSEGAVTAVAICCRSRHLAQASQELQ
T2 sequence (Q8NBP7 31-152 partner limits assumed): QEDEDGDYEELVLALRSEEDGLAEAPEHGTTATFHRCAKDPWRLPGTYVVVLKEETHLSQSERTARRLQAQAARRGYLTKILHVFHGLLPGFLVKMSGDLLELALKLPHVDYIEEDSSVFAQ

Substance: (aa181-200): peptide of catalytic segment of hPCSK9 (aa181-200) from a previous study (EVYLLDTSIQSDHREIEGRV; UniProt Q8NBP7 181-200, looked up, fragment)
LDL-R promoting effect (previous study) (LDL-R [1]): modest LDL-R promoting effect

Substance: (aa368-390): peptide of catalytic segment of hPCSK9 (aa368-390) from a previous study (IIGASSDCSTCFVSQSGTSQAAA; UniProt Q8NBP7 368-390, looked up, fragment)
LDL-R promoting effect (previous study) (LDL-R [1]): modest LDL-R promoting effect

maximal quenching of fluorescence intensity of (IIId) [2]: 75.5%
Substance: Captavidin: avidin analog with binding affinity towards biotin

complex formation with recPCSK9 [3]: forms a stable complex
LDL-R level versus DMSO control (LDL-R [4]; HepG2, 12 μg/ml, 24 h, standardized against actin, FIG. 13A): significant up regulation of the LDL-R
Substance: FI-EGF-A: 5-Carboxy Fluorescein N-terminally labeled 42 aa EGF-A domain peptide of hLDL-R (aa314-355)
PCSK9 level versus DMSO control (PCSK9): marked up regulation of PCSK9
restoration of LDL-R level after rec-PCSK9 (LDL-R [5]; HuH7 cells, rec-PCSK9 20 μg/ml, increasing amounts of FI-EGF-A, FIG. 13B): partly restored gradually

Substance: GEDIIGASSDCSTCFVSQSG [CP3]
LDL-R promoting activity (LDL-R [4]; HepG2, 5.5 μM, FIG. 16): modest but significant LDL-R promoting activity
rescue of LDL-R level following degradation by externally added PCSK9 protein (LDL-R [5]; cell line not stated at the place (HepG2 or HuH7)): can rescue LDL-R level to a significant level

maximal quenching of fluorescence intensity of (IIId) [2]: 85%
Substance: Nutravidin: avidin analog with binding affinity towards biotin

LDL-R promoting effect of acyclic mutant compared with CP3 (LDL-R [4]; HepG2, FIG. 16): completely lost
Substance: ^365GEDIIGASSDASTCFVSQSG^384 [CP3-C/A]

quenching of fluorescence intensity of (IIId) [2]: ~98%
Substance: avidin: biotin-binding protein

quenching of fluorescence intensity of (IIId) [2]: 30%
Substance: h insulin: control peptide which does not bind with biotin

maximal quenching of fluorescence intensity of (IIId) [2]: ~81.4%
Substance: streptavidin: avidin analog with binding affinity towards biotin
Kd [6]: ~0.1 nM

From patent US10557129B2, “Peptides derived from human PCSK9 catalytic domain and uses thereof for promoting LDL-R activity” (Pronasci Inc., priority 2015, dated 2020)
